Experimental data published in patent US11168067B2, “Substituted quinazoline compound having blood-brain barrier penetration capability” (WEISHANG (SHANGHAI) BIO-PHARMACEUTICAL CO., LTD., priority 2016, dated 2021).

Assays:
[1] = Blood-brain barrier penetration (brain tissue to plasma concentration ratio); assay type: in vivo; conditions: rat, rats, four hours after dosing
Description: To determine whether the compound was able to cross the blood-brain barrier (BBB), the rats were administered with the test compound. Four hours after dosing, rats were sacrificed, blood and brain tissue were collected and the concentration of the test compound was analyzed. Brain permeation is defined as the ratio of the concentration of the compound in the brain tissue to the concentration in the plasma. P-glycoprotein is the blood-brain barrier efflux protein, […].

[2] = tested on: PC-9 tumor cell; test: CellTiter-Glo (CTG) cell viability assay, PC-9 tumor cell growth inhibition; conditions: for IC50: Homo sapiens, PC-9, 72 h, read-out: PC-9 tumor cell growth inhibition IC50; for inhibiting PC-9 tumor cell growth compared with Iressa: PC-9 cells, cell viability assay
Description: Cell viability of tumor cells with EGFR-activated mutations (exon 19-deficient Exon 19 Del) protein was detected using CellTiter-Glo (CTG) assay; about 5000 cells were seeded in each blank 96-well plate, 16 hours later, add the proportionally diluted compound, equilibrated at room temperature for 72 hours after the addition of the drug for 30 minutes. 100 μl of CellTiter-Glo reagent was added to each well and the orbital shaker was mixed for 2 minutes to induce cell lysis. The plate was incubated at room temperature for 10 minutes to stabilize the luminescence signal. The TECAN Infinite M1000 Pro instrument records the luminescence signal.

Compound	Kp at 4 h [1]	IC50 [2]	inhibiting PC-9 tumor cell growth compared with Iressa [2]
COc1cc2ncnc(Nc3cccc(Cl)c3F)c2cc1OC1CCN(C2COC2)CC1(F)F (racemic) [Compound 1, (R/S)—N-(3-chloro-2-fluorophenyl)-6-((3,3-difluoro-1-(oxetan-3-yl)piperidin-4-yl)oxy)-7-methoxyquinazolin-4-amine]	> 0.3	< 1 nM	more effective than Iressa
C#Cc1cccc(Nc2ncnc3cc(OC)c(OC4CCN(C5COC5)CC4(F)F)cc23)c1F (racemic) [Compound 2, (R/S)-6-((3,3-difluoro-1-(oxetan-3-yl)piperidin-4-yl)oxy)-N-(3-ethynyl-2-fluorophenyl)-7-methoxyquinazolin-4-amine]	> 0.3	–	–
[2H]C([2H])([2H])Oc1cc2ncnc(Nc3cccc(Cl)c3F)c2cc1OC1CCN(C2COC2)CC1(F)F (racemic) [Compound 3, (R/S)—N-(3-chloro-2-fluorophenyl)-6-((3,3-difluoro-1-(oxetan-3-yl)piperidin-4-yl)oxy)-7-(methoxy-d3)quinazolin-4-amine]	> 0.3	< 1 nM	–
[2H]C([2H])([2H])Oc1cc2ncnc(Nc3cccc(C#C)c3F)c2cc1OC1CCN(C2COC2)CC1(F)F (racemic) [Compound 4, (R/S)-6-((3,3-difluoro-1-(oxetan-3-yl)piperidin-4-yl)oxy)-N-(3-ethynyl-2-fluorophenyl)-7-(methoxy-d3)quinazolin-4-amine]	> 0.3	–	–
C#Cc1c(F)ccc(Nc2ncnc3cc(OC)c(OC4CCN(C)CC4(F)F)cc23)c1F (racemic) [Compound 5, (R/S)-6-((3,3-difluoro-1-methylpiperidin-4-yl)oxy)-N-(3-ethynyl-2,4-difluorophenyl)-7-methoxyquinazolin-4-amine]	> 0.3	–	–
C#Cc1cccc(Nc2ncnc3cc(OC)c(OC4CCN(C)CC4(F)F)cc23)c1F (racemic) [Compound 6, (R/S)-6-((3,3-difluoro-1-methylpiperidin-4-yl)oxy)-N-(3-ethynyl-2-fluorophenyl)-7-methoxyquinazolin-4-amine]	> 0.3	–	–
COc1cc2ncnc(Nc3ccc(F)c(Cl)c3F)c2cc1OC1CCN(C2COC2)CC1(F)F (racemic) [Compound 7, (R/S)—N-(3-chloro-2,4-difluorophenyl)-6-((3,3-difluoro-1-(oxetan-3-yl)piperidin-4-yl)oxy)-7-methoxyquinazolin-4-amine]	> 0.3	< 1 nM	more effective than Iressa
C#Cc1c(F)ccc(Nc2ncnc3cc(OC)c(OC4CCN(C5COC5)CC4(F)F)cc23)c1F (racemic) [Compound 8, (R/S)-6-((3,3-difluoro-1-(oxetan-3-yl)piperidin-4-yl)oxy)-N-(3-ethynyl-2,4-difluorophenyl)-7-methoxyquinazolin-4-amine]	> 0.3	–	–
[2H]C([2H])([2H])Oc1cc2ncnc(Nc3ccc(F)c(Cl)c3F)c2cc1OC1CCN(C2COC2)CC1(F)F (racemic) [Compound 9, (R/S)—N-(3-chloro-2,4-difluorophenyl)-6-((3,3-difluoro-1-(oxetan-3-yl)piperidin-4-yl)oxy)-7-(methoxy-d3)quinazolin-4-amine]	> 0.3	< 1 nM	more effective than Iressa
[2H]C([2H])([2H])Oc1cc2ncnc(Nc3ccc(F)c(C#C)c3F)c2cc1OC1CCN(C2COC2)CC1(F)F (racemic) [Compound 10, (R/S)-6-((3,3-difluoro-1-(oxetan-3-yl)piperidin-4-yl)oxy)-N-(3-ethynyl-2,4-difluorophenyl)-7-(methoxy-d3)quinazolin-4-amine]	> 0.3	–	–
COc1cc2ncnc(Nc3cccc(Cl)c3F)c2cc1O[C@@H]1CCN(C2COC2)CC1(F)F [Compound 11, (R)—N-(3-chloro-2-fluorophenyl)-6-((3,3-difluoro-1-(oxetan-3-yl)piperidin-4-yl)oxy)-7-methoxyquinazolin-4-amine]	> 0.3	< 1 nM	–
C#Cc1cccc(Nc2ncnc3cc(OC)c(O[C@@H]4CCN(C5COC5)CC4(F)F)cc23)c1F [Compound 12, (R)-6-((3,3-difluoro-1-(oxetan-3-yl)piperidin-4-yl)oxy)-N-(3-ethynyl-2-fluorophenyl)-7-methoxyquinazolin-4-amine]	> 0.3	–	–
COc1cc2ncnc(Nc3cccc(Cl)c3F)c2cc1O[C@H]1CCN(C2COC2)CC1(F)F [Compound 13, (S)—N-(3-chloro-2-fluorophenyl)-6-((3,3-difluoro-1-(oxetan-3-yl)piperidin-4-yl)oxy)-7-methoxyquinazolin-4-amine]	> 0.3	< 1 nM	–
C#Cc1cccc(Nc2ncnc3cc(OC)c(O[C@H]4CCN(C5COC5)CC4(F)F)cc23)c1F [Compound 14, (S)-6-((3,3-difluoro-1-(oxetan-3-yl)piperidin-4-yl)oxy)-N-(3-ethynyl-2-fluorophenyl)-7-methoxyquinazolin-4-amine]	> 0.3	–	–
[2H]C([2H])([2H])Oc1cc2ncnc(Nc3cccc(Cl)c3F)c2cc1O[C@@H]1CCN(C2COC2)CC1(F)F [Compound 15, (R)—N-(3-chloro-2-fluorophenyl)-6-((3,3-difluoro-1-(oxetan-3-yl)piperidin-4-yl)oxy)-7-(methoxy-d3)quinazolin-4-amine]	> 0.3	< 1 nM	–
[2H]C([2H])([2H])Oc1cc2ncnc(Nc3cccc(C#C)c3F)c2cc1O[C@@H]1CCN(C2COC2)CC1(F)F [Compound 16, (R)-6-((3,3-difluoro-1-(oxetan-3-yl)piperidin-4-yl)oxy)-N-(3-ethynyl-2-fluorophenyl)-7-(methoxy-d3)quinazolin-4-amine]	> 0.3	–	–
[2H]C([2H])([2H])Oc1cc2ncnc(Nc3cccc(Cl)c3F)c2cc1O[C@H]1CCN(C2COC2)CC1(F)F [Compound 17, (S)—N-(3-chloro-2-fluorophenyl)-6-((3,3-difluoro-1-(oxetan-3-yl)piperidin-4-yl)oxy)-7-(methoxy-d3)quinazolin-4-amine]	> 0.3	< 1 nM	–
[2H]C([2H])([2H])Oc1cc2ncnc(Nc3cccc(C#C)c3F)c2cc1O[C@H]1CCN(C2COC2)CC1(F)F [Compound 18, (S)-6-((3,3-difluoro-1-(oxetan-3-yl)piperidin-4-yl)oxy)-N-(3-ethynyl-2-fluorophenyl)-7-(methoxy-d3)quinazolin-4-amine]	> 0.3	–	–
C#Cc1c(F)ccc(Nc2ncnc3cc(OC)c(O[C@@H]4CCN(C)CC4(F)F)cc23)c1F [Compound 19, (R)-6-((3,3-difluoro-1-methylpiperidin-4-yl)oxy)-N-(3-ethynyl-2,4-difluorophenyl)-7-methoxyquinazolin-4-amine]	> 0.3	–	–
C#Cc1cccc(Nc2ncnc3cc(OC)c(O[C@@H]4CCN(C)CC4(F)F)cc23)c1F [Compound 20, (R)-6-((3,3-difluoro-1-methylpiperidin-4-yl)oxy)-N-(3-ethynyl-2-fluorophenyl)-7-methoxyquinazolin-4-amine]	> 0.3	–	–
C#Cc1c(F)ccc(Nc2ncnc3cc(OC)c(O[C@H]4CCN(C)CC4(F)F)cc23)c1F [Compound 21, (S)-6-((3,3-difluoro-1-methylpiperidin-4-yl)oxy)-N-(3-ethynyl-2,4-difluorophenyl)-7-methoxyquinazolin-4-amine]	> 0.3	–	–
C#Cc1cccc(Nc2ncnc3cc(OC)c(O[C@H]4CCN(C)CC4(F)F)cc23)c1F [Compound 22, (S)-6-((3,3-difluoro-1-methylpiperidin-4-yl)oxy)-N-(3-ethynyl-2-fluorophenyl)-7-methoxyquinazolin-4-amine]	> 0.3	–	–
COc1cc2ncnc(Nc3ccc(F)c(Cl)c3F)c2cc1O[C@@H]1CCN(C2COC2)CC1(F)F [Compound 23, (R)—N-(3-chloro-2,4-difluorophenyl)-6-((3,3-difluoro-1-(oxetan-3-yl)piperidin-4-yl)oxy)-7-methoxyquinazolin-4-amine]	> 0.3	< 1 nM	–
C#Cc1c(F)ccc(Nc2ncnc3cc(OC)c(O[C@@H]4CCN(C5COC5)CC4(F)F)cc23)c1F [Compound 24, (R)-6-((3,3-difluoro-1-(oxetan-3-yl)piperidin-4-yl)oxy)-N-(3-ethynyl-2,4-difluorophenyl)-7-methoxyquinazolin-4-amine]	> 0.3	–	–
COc1cc2ncnc(Nc3ccc(F)c(Cl)c3F)c2cc1O[C@H]1CCN(C2COC2)CC1(F)F [Compound 25, (S)—N-(3-chloro-2,4-difluorophenyl)-6-((3,3-difluoro-1-(oxetan-3-yl)piperidin-4-yl)oxy)-7-methoxyquinazolin-4-amine]	> 0.3	< 1 nM	–
C#Cc1c(F)ccc(Nc2ncnc3cc(OC)c(O[C@H]4CCN(C5COC5)CC4(F)F)cc23)c1F [Compound 26, (S)-6-((3,3-difluoro-1-(oxetan-3-yl)piperidin-4-yl)oxy)-N-(3-ethynyl-2,4-difluorophenyl)-7-methoxyquinazolin-4-amine]	> 0.3	–	–
[2H]C([2H])([2H])Oc1cc2ncnc(Nc3ccc(F)c(Cl)c3F)c2cc1O[C@@H]1CCN(C2COC2)CC1(F)F [Compound 27, (R)—N-(3-chloro-2,4-difluorophenyl)-6-((3,3-difluoro-1-(oxetan-3-yl)piperidin-4-yl)oxy)-7-(methoxy-d3)quinazolin-4-amine]	> 0.3	< 1 nM	–
[2H]C([2H])([2H])Oc1cc2ncnc(Nc3ccc(F)c(C#C)c3F)c2cc1O[C@@H]1CCN(C2COC2)CC1(F)F [Compound 28, (R)-6-((3,3-difluoro-1-(oxetan-3-yl)piperidin-4-yl)oxy)-N-(3-ethynyl-2,4-difluorophenyl)-7-(methoxy-d3)quinazolin-4-amine]	> 0.3	–	–
[2H]C([2H])([2H])Oc1cc2ncnc(Nc3ccc(F)c(C#C)c3F)c2cc1O[C@H]1CCN(C2COC2)CC1(F)F [Compound 30, (S)-6-((3,3-difluoro-1-(oxetan-3-yl)piperidin-4-yl)oxy)-N-(3-ethynyl-2,4-difluorophenyl)-7-(methoxy-d3)quinazolin-4-amine]	> 0.3	–	–
